The values below come from PMC9487510, “A Novel Oral GyrB/ParE Dual Binding Inhibitor Effective against Multidrug-Resistant Neisseria gonorrhoeae and Other High-Threat Pathogens” (Antimicrobial Agents and Chemotherapy, 2022).

Each structure is given as a SMILES string. Values after ≈ are worked out from the molar mass of the structure shown.

The test system of one data set is VISA. The data set can be described thus: MIC, in vitro susceptibility testing (CLSI). As to conditions: for MIC: Staphylococcus aureus, VISA. Format: cell-based, Staphylococcus aureus.
Data set [1] is described as follows: Kinetic aqueous solubility. The following applies: aqueous medium (not further specified). Format: physicochemical.
Data set [2] can be described thus: Liver microsome stability, mouse. It is filed as in vitro ADME. The following applies: male, CD-1, mouse, liver microsomes, pH 7.4. As to the method: Liver microsome stability assays were performed by BioDuro Inc. Human and mouse (CD-1 male) liver microsomes were used. […] Next, 50 μL of reaction buffer was added to solution and mixed via pipetting up and down 6 times. At each time point of 0, 30, and 60 min, an aliquot of 20 μL was removed from each tube. Liver microsomes (LM) working solution was prepared in 0.05 M phosphate reaction buffer (pH = 7.4) to a final concentration of 1.27 mg/mL. NADPH solution was prepared in 0.05 M phosphate buffer to afford a 5 mM buffer solution. […] After vortexing and incubating for 5 min (37°C), 50 μL of NADPH solution was added and mixed via pipetting. At each time point of 0, 5, 15, 30, and 60 min, an aliquot of 20 μL was removed from each tube. Next, 250 μL of quenching solution was aliquoted to quench the reaction, which was then vortexed for 1 min and placed on ice for 40 min. After centrifugation at 4,000 × g for 15 min, 100 μL of supernatant was transferred using a multichannel pipette to 0.65-mL tubes. Samples were diluted with MeOH: H2O (1:1) as necessary. Samples were analyzed by high-pressure liquid chromatography coupled to tandem mass spectrometry (LC/MS/MS) performed on a Sciex Applied Biosystems Qtrap 4000 triple-quadrupole mass spectrometer coupled to a Shimadzu HPLC system to quantify the remaining compound. Data were processed using Analyst software (version 1.4.2; Applied Biosystems Sciex). […] Metabolite identification on the microsomal extracts was performed using a Q-Exactive HRMS coupled with an Ultimate 3000 HPLC system and a Kinetix C18 2.1 × 50-mm 2.6-μm HPLC column.
For orientation: Liver microsomes are vesicles of endoplasmic reticulum, rich in cytochrome P450 enzymes.

Another data set in a line: Serum protein binding. Format: in vitro ADME.
The next data set has as its system Neisseria. It is filed as cell-based, N. gonorrhoeae. As to conditions: at 1× MIC; resistance not observed; data not shown.
The target in a further data set is hERG K+ channel (Homo sapiens, UniProt Q12809). The data set can be described thus: hERG inhibition, whole-cell patch clamp in HEK-293 cells. The following applies: pH 7.4. (hERG is a cardiac potassium channel; its block is linked to QT prolongation.)
Chain of hERG K+ channel (Q12809 whole entry): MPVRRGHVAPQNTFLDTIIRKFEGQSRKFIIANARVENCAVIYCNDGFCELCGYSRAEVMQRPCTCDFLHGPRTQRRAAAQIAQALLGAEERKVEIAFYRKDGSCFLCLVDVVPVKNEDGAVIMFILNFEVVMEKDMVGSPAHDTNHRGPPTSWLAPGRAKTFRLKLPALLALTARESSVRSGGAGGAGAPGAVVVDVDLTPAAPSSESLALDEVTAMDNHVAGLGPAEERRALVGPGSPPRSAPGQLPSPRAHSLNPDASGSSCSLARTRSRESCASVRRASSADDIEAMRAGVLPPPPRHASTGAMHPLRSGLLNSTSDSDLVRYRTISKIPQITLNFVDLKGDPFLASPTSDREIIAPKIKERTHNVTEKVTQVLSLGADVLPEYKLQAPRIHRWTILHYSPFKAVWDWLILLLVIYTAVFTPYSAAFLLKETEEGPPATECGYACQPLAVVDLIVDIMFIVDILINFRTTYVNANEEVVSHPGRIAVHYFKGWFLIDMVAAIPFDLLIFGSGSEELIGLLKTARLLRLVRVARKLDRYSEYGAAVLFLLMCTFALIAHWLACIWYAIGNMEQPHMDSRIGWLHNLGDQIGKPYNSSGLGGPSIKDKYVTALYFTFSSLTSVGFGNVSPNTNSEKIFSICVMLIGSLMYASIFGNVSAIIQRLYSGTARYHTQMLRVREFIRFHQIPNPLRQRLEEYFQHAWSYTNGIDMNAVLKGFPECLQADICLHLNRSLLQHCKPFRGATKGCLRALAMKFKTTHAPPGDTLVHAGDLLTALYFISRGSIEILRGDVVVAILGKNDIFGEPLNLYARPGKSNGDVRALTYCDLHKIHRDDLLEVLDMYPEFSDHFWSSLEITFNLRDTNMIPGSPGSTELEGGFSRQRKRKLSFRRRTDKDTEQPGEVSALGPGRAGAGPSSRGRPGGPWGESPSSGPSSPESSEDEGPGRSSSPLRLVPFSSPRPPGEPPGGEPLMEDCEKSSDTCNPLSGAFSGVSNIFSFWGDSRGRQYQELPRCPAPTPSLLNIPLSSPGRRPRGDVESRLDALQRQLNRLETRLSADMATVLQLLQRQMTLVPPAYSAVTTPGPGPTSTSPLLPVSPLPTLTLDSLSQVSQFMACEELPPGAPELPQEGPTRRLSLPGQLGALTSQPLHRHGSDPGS
The nature of data set [3]: Liver microsome stability, human. It is filed as in vitro ADME. As to conditions: liver microsomes. As to the method:
Liver microsome stability assays were performed by BioDuro Inc. Human and mouse (CD-1 male) liver microsomes were used. […] Next, 50 μL of reaction buffer was added to solution and mixed via pipetting up and down 6 times. At each time point of 0, 30, and 60 min, an aliquot of 20 μL was removed from each tube. Liver microsomes (LM) working solution was prepared in 0.05 M phosphate reaction buffer (pH = 7.4) to a final concentration of 1.27 mg/mL. NADPH solution was prepared in 0.05 M phosphate buffer to afford a 5 mM buffer solution. […] After vortexing and incubating for 5 min (37°C), 50 μL of NADPH solution was added and mixed via pipetting. At each time point of 0, 5, 15, 30, and 60 min, an aliquot of 20 μL was removed from each tube. Next, 250 μL of quenching solution was aliquoted to quench the reaction, which was then vortexed for 1 min and placed on ice for 40 min. After centrifugation at 4,000 × g for 15 min, 100 μL of supernatant was transferred using a multichannel pipette to 0.65-mL tubes. Samples were diluted with MeOH: H2O (1:1) as necessary. Samples were analyzed by high-pressure liquid chromatography coupled to tandem mass spectrometry (LC/MS/MS) performed on a Sciex Applied Biosystems Qtrap 4000 triple-quadrupole mass spectrometer coupled to a Shimadzu HPLC system to quantify the remaining compound. […]

For another data set, the system named is C. difficile. The data set can be described thus: MIC, toxigenic C. difficile panel (CLSI). Format: cell-based, Clostridioides difficile.

With `CNc1cc(F)cc2c1[nH]c1nc(Oc3cnc(C)nc3)nc(N3CCC4(CC3)CO[C@@H](CO)C4)c12` [JSF-2414], the MIC range with VISA (N = 8) fell in the range of 0.0156 to 0.063 µg/mL; in the data set on C. difficile (N = 9, toxigenic panel), 0.0078 to 0.0630 µg/mL. The MIC (usually the smallest concentration in the dilution series that meets the test's criterion for growth inhibition) against VISA (strain 2 11 43) is 0.0156 to 0.031 µg/mL (≈ 0.0316 to 0.0628 µM); against VISA (strain 2 11 56), 0.063 µg/mL (≈ 0.128 µM); with VISA (strain 2 11 57), 0.031 to 0.063 µg/mL (≈ 0.0628 to 0.128 µM); with VISA (strain 2 11 61) it was 0.0156 to 0.031 µg/mL (≈ 0.0316 to 0.0628 µM); against VISA (strain 2 11 71), 0.0156 to 0.031 µg/mL (≈ 0.0316 to 0.0628 µM); against VISA (strain 2 11 78), 0.0156 to 0.031 µg/mL (≈ 0.0316 to 0.0628 µM). The MIC with VISA (strain 2 11 86) was 0.031 µg/mL (≈ 0.0628 µM); against VISA (strain 2 13 52) it was 0.0156 to 0.031 µg/mL (≈ 0.0316 to 0.0628 µM); in the data set on C. difficile (Clostridioides difficile, BAA1805, strain BAA-1805, read-out: MIC), 0.031 µg/mL (≈ 0.0628 µM). Further, the kinetic solubility (usually the concentration staying in solution when a stock, usually in DMSO, is diluted into the medium) in data set [1] was determined as 0.576 µM (≈ 0.284 µg/mL). Further, the microsomal CLint at 1 μM amounted to 11.9 µL/min/mg in data set [2] (read-out: MLM Clint) and 2.1 µL/min/mg in data set [3] (pH 7.4, read-out: HLM Clint). In addition, the half-life at 1 μM in data set [2] (read-out: MLM t1/2) is 0.97 h; in data set [3] (pH 7.4, read-out: HLM t1/2) it was 5.5 h. The fraction unbound (usually the share of the substance not bound to proteins or other matrix) in “Serum protein binding” was 0.012. Further, the spontaneous resistance frequency in the data set on Neisseria is listed as < 7.5 × 10^−4. Also, on hERG K+ channel, the half-maximal inhibitory concentration (IC50) (in general, the concentration that inhibits the measured activity by half) at 3 min was more than 50 µM.
